According to US20090226368A1, “Androgen-Receptor (AR) Ligands for Use in the Treatment and Diagnosis of AR-Related Pathologies” (priority 2005, published 2009):

Tests used:
human AR recombinant = biological target: T1, human AR recombinant (Homo sapiens, UniProt P10275); test: Relative Binding Affinity (RBA) assay, competitive binding with [3H]R1881; conditions: against [3H]R1881; R1881 standard = 100 by definition
T1 construct: purchased Pan-Vera
T1 sequence (P10275 1-920): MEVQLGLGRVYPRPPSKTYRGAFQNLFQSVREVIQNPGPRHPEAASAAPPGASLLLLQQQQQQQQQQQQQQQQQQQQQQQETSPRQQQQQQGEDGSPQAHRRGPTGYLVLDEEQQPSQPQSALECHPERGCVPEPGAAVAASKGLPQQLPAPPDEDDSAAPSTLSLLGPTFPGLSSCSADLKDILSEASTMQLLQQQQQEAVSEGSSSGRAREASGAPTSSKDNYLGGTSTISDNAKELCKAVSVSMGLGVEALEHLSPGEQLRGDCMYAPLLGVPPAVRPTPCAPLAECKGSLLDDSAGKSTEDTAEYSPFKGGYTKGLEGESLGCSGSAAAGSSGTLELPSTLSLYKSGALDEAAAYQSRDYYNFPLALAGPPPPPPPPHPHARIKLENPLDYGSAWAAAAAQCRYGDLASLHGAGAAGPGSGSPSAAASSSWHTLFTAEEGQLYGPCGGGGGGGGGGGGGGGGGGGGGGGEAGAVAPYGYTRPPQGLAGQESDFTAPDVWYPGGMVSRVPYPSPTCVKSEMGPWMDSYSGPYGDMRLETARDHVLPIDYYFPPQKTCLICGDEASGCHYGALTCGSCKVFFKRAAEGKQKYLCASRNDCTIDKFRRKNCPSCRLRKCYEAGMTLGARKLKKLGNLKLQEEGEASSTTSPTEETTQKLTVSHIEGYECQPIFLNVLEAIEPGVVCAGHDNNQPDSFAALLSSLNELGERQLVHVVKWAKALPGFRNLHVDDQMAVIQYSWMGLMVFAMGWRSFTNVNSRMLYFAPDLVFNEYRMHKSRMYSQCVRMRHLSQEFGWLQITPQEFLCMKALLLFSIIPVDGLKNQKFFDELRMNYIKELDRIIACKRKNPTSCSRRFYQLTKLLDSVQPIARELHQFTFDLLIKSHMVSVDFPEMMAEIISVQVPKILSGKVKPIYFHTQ
Experimental: In order to measure the affinity of the compounds to the A, the compounds of the general Formula I, referred herein also as the AR ligands were tested in RBA (Relative Binding Affinity) assay, which is a competitive binding assay with ^3H—R1881, a high affinity AR binding ligand.
RBA of androgens were measured against [^3H]R1881 in human AR recombinant (Pan-Vera). RBA values of the standards are 100 by definition (Brandes S. J., et al., Molecular Pharmacology; 1987; 32:391-400).

[1] = Blood stability test, incubation in blood at 37° C.; format: in vitro ADME, human
Experimental: Blood was taken in EDTA tubes in order to prevent coagulation. 550 μl of ^18F-labeled (R)-Compound 3 was added to 1 ml of blood, and put in a rotating incubator at 37° C. The incubation times were 0, 30, 60 and 90 minutes. After the incubation, the blood was centrifuged for 5 minutes at 3000 rpm. The plasma was centrifuged again for 5 minutes at 10600 g and the pellet was discarded. 400 μl of the resulting supernatant was added to 800 μl of 30% THF/CH3CN, vortexed for 30 seconds and centrifuged for 5 minute at 10600 g. The supernatant was filtered through 0.45 μm filter and injected to HPLC column. The column was eluted with a mixture of acetate buffer (pH 3.8) and acetonitrile (35:65) at flow rate of 3 ml/min. The HPLC eluent was monitored sequentially for UV absorbance at 254 nm and radioactivity. Each sample was done in duplicate.
The same procedure was done with the ^11C-labeled (R)-Compound 3 after incubation of 0, 15, 30 and 45 minutes.
Blood stability, which was measured by phosphor-imager, was done in the same procedure. The filtered samples were loaded on reverse phase TLC plates and exposed to the phosphor-imager plates for 1 hour.
In the case of (R)-Compound 2, the incubation in the human blood sample was 0, 15, 30 and 45 minutes. The percent of extraction of the compound was around 40%.

LNCap cell lines = test: Antagonist test, PSA secretion measured by ELISA; format: cell-based; conditions: 48 and 72 hours; for PSA secretion in comparison to the control: given alone, testosterone 100 nM, compound 0.2, 0.5 and 1 μM
Experimental: PSA (Prostate Specific Antigen) is a secreted protein which is regulated by AR and is clinically used to detect prostate cancer in humans. LNCap cell lines were seeded in 24 wells (10^5 cells/well) in 10% FCS RPMI supplemented with sodium-pyruvate, pen/strep, L-glutamine, testosterone and insulin and grown for 24 hours. Then, the cells were washed 3 times with cold PBS and incubated in 10% FCS red-phenol-free RPMI. Testosterone (100 nM), ^18F-labeled (R)-Compound 3 (0.2, 0.5 and 1 μM) or both were added to the wells. Ethanol, which was used as the solvent of the testosterone and ^18F-labeled (R)-Compound 3, was added to the control wells in the same concentration.
At 48 and 72 hours, a sample of the medium was taken and the PSA levels were measured by ELISA.

[2] = PET-CT scan of distribution, bladder activity; format: in vivo; conditions: normal Lewis male rats, 40 minutes post injection
Experimental: In some clinically used radio-tracers, such of FDG, activity is observed in the bladder, and mask the prostate. […] The distribution of the compound was scanned by human PET-CT. Counter dye was injected to the animal 10 minutes prior to the injection of the labeled compound and the exact location of the bladder was detected by CT. In accordance with the biodistribution experiment, activity was measured in the metabolic organs.

[3] = Biodistribution in normal Lewis male rats, gamma-counter; format: in vivo; conditions: tail vein
Experimental: The distribution of ^11C-labeled (R)-Compound 3 was measured in normal Lewis male rats which have been kept under SPF conditions. The labeled compound was injected through the tail vein of the rat. The rats were sacrificed 30, 60 and 90 minutes post injection, and prostate, blood, liver, muscle and kidney were removed and the activity in each organ was measured by gamma-counter (Tables 2A-D).

[4] = In-vivo blood stability in nude mice; conditions: blood sampled after 0, 15, 30 and 35 minutes, phosphor-imagers
Experimental: In-vivo blood stability experiments were performed for the ^11C-labeled (R)-Compound 3. The compound was injected into nude mice. Blood was sampled from the mice after 0, 15, 30 and 35 minutes. The labeled compound was extracted and evaluated using phosphor-imagers.

[5] = 30 minutes post injection, Table 2A
[6] = 60 minutes post injection, Table 2B
[7] = 60 minutes post injection, Table 2B (Rats 1, 2)
[8] = 60 minutes post injection, Table 2C
[9] = 60 minutes post injection, Table 2C (Rats 3, 4)
[10] = 90 minutes post injection, Table 2D
[11] = blood, 37° C., incubation 0, 30, 60 and 90 minutes, HPLC

CN(C)C[C@@](C)(O)C(=O)Nc1ccc(C#N)c(C(F)(F)F)c1 [(R)-Compound 1, (R)-3-Dimethyl-N-(4-cyano-3-trifluoromethyl-phenyl)-2-hydroxy-2-methyl-propionamide]
RBA (%) (human AR recombinant): 0.030%

CN(C)C[C@@](C)(O)C(=O)Nc1ccc([N+](=O)[O-])c(C(F)(F)F)c1 [(R)-Compound 2, (R)-3-Dimethyl-2-hydroxy-2-methyl-N-(4-nitro-3-trifluoromethyl-phenyl)-propionamide]
percent of extraction ([1]; human blood sample, incubation 0, 15, 30 and 45 minutes): around 40% | formation of metabolites ([1]; human blood sample, incubation 0, 15, 30 and 45 minutes, phosphor-imager): no metabolites were evident | RBA (%) (human AR recombinant): 0.036%

CN(C)C[C@@](C)(O)C(=O)Nc1ccc(F)c(C(F)(F)F)c1 [(R)-Compound 3, (R)-3-Dimethyl-N-(4-fluoro-3-(trifluoromethyl)phenyl)-2-hydroxy-2-methyl-propanamide]
RBA (%) (human AR recombinant): 0.029%

C[C@](O)(CBr)C(=O)Nc1ccc(F)c(C(F)(F)F)c1 [(R)-F-1, (R)-3-Bromo-N-(4-fluoro-3-(trifluoromethyl)phenyl)-2-hydroxy-2-methyl-propanamide]
RBA (%) (human AR recombinant): 0.057%

CC(C)(O)C(=O)Nc1ccc(F)c(C(F)(F)F)c1 [(R)-F-2, N-(4-fluoro-3-(trifluoromethyl)phenyl)-2-hydroxy-2-methylpropanamide]
RBA (%) (human AR recombinant): 0.027%

C[C@]1(O)CC[C@H]2[C@@H]3CCC4=CC(=O)CCC4=C3C=C[C@@]21C [Compound R1881]
RBA (%) (human AR recombinant): 100%

CC(C)(O)C(=O)Nc1ccc([N+](=O)[O-])c(C(F)(F)F)c1 [Hydroxyflutamide]
RBA (%) (human AR recombinant): 0.027%

C[C@]12CC[C@H]3[C@@H](CCC4=CC(=O)CC[C@@]43C)[C@@H]1CC[C@@H]2O [Testosterone, reference compound]
PSA secretion in comparison to the control (LNCap cell lines): increased PSA secretion

CN([11CH3])C[C@@](C)(O)C(=O)Nc1ccc(F)c(C(F)(F)F)c1 [^11C-labeled (R)-Compound 3]
activity in the bladder [2]: No activity was observed in the bladder | Biodistribution Blood, Av. [3, 5]: 0.76 % id/g | Biodistribution Blood, Rat 1 [3, 5]: 0.89 % id/g | Biodistribution Blood, Rat 2 [3, 5]: 0.63 % id/g | Biodistribution Kidney, Av. [3, 5]: 12.43 % id/g | Biodistribution Kidney, Rat 1 [3, 5]: 15.57 % id/g | Biodistribution Kidney, Rat 2 [3, 5]: 9.29 % id/g | Biodistribution Liver, Av. [3, 5]: 3.96 % id/g | Biodistribution Liver, Rat 1 [3, 5]: 4.26 % id/g | Biodistribution Liver, Rat 2 [3, 5]: 3.67 % id/g | Biodistribution Muscle, Av. [3, 5]: 1.14 % id/g | Biodistribution Muscle, Rat 1 [3, 5]: 1.07 % id/g | Biodistribution Muscle, Rat 2 [3, 5]: 1.21 % id/g | Biodistribution Prostate, Av. [3, 5]: 1.47 % id/g | Biodistribution Prostate, Rat 1 [3, 5]: 1.67 % id/g | Biodistribution Prostate, Rat 2 [3, 5]: 1.27 % id/g | Biodistribution Blood, Rat 1 [3, 6]: 0.54 % id/g | Biodistribution Blood, Rat 2 [3, 6]: 0.41 % id/g | Biodistribution Kidney, Rat 1 [3, 6]: 5.03 % id/g | Biodistribution Kidney, Rat 2 [3, 6]: 3.54 % id/g | Biodistribution Liver, Rat 1 [3, 6]: 8.79 % id/g | Biodistribution Liver, Rat 2 [3, 6]: 4.61 % id/g | Biodistribution Muscle, Rat 1 [3, 6]: 1.02 % id/g | Biodistribution Muscle, Rat 2 [3, 6]: 0.68 % id/g | Biodistribution Prostate, Rat 1 [3, 6]: 2.32 % id/g | Biodistribution Prostate, Rat 2 [3, 6]: 1.05 % id/g | Biodistribution Blood, Av. [3, 7]: 0.48 % id/g | Biodistribution Kidney, Av. [3, 7]: 4.29 % id/g | Biodistribution Liver, Av. [3, 7]: 6.70 % id/g | Biodistribution Muscle, Av. [3, 7]: 0.85 % id/g | Biodistribution Prostate, Av. [3, 7]: 1.69 % id/g | Biodistribution Blood, Rat 3 [3, 8]: 0.28 % id/g | Biodistribution Blood, Rat 4 [3, 8]: 0.35 % id/g | Biodistribution Kidney, Rat 3 [3, 8]: 2.48 % id/g | Biodistribution Kidney, Rat 4 [3, 8]: 2.54 % id/g | Biodistribution Liver, Rat 3 [3, 8]: 5.30 % id/g | Biodistribution Liver, Rat 4 [3, 8]: 5.14 % id/g | Biodistribution Muscle, Rat 3 [3, 8]: 0.55 % id/g | Biodistribution Muscle, Rat 4 [3, 8]: 0.56 % id/g | Biodistribution Prostate, Rat 3 [3, 8]: 1.13 % id/g | Biodistribution Prostate, Rat 4 [3, 8]: 1.18 % id/g | Biodistribution Blood, Av. [3, 9]: 0.32 % id/g | Biodistribution Kidney, Av. [3, 9]: 2.51 % id/g | Biodistribution Liver, Av. [3, 9]: 5.22 % id/g | Biodistribution Muscle, Av. [3, 9]: 0.55 % id/g | Biodistribution Prostate, Av. [3, 9]: 1.16 % id/g | Biodistribution Blood, Av. [3, 10]: 0.36 % id/g | Biodistribution Blood, Rat 1 [3, 10]: 0.3 % id/g | Biodistribution Blood, Rat 2 [3, 10]: 0.42 % id/g | Biodistribution Kidney, Av. [3, 10]: 2.46 % id/g | Biodistribution Kidney, Rat 1 [3, 10]: 2.24 % id/g | Biodistribution Kidney, Rat 2 [3, 10]: 2.68 % id/g | Biodistribution Liver, Av. [3, 10]: 5.35 % id/g | Biodistribution Liver, Rat 1 [3, 10]: 5.16 % id/g | Biodistribution Liver, Rat 2 [3, 10]: 5.55 % id/g | Biodistribution Muscle, Av. [3, 10]: 0.53 % id/g | Biodistribution Muscle, Rat 1 [3, 10]: 0.48 % id/g | Biodistribution Muscle, Rat 2 [3, 10]: 0.57 % id/g | Biodistribution Prostate, Av. [3, 10]: 1.17 % id/g | Biodistribution Prostate, Rat 1 [3, 10]: 1.22 % id/g | Biodistribution Prostate, Rat 2 [3, 10]: 1.12 % id/g | metabolites in blood in vivo [4]: No metabolites were evident

CN(C)C[C@@](C)(O)C(=O)Nc1ccc([18F])c(C(F)(F)F)c1 [^18F-labeled (R)-Compound 3]
PSA secretion in comparison to the control (LNCap cell lines): reduced the PSA secretion | testosterone-induced secretion of PSA (LNCap cell lines; together with testosterone 100 nM, 0.2, 0.5 and 1 μM, P<0.01): significantly reduced the testosterone-induced secretion of PSA | metabolites in blood [1, 11]: no metabolites were evident | percent of extraction [1, 11]: 39-43%
